Measurements published in patent publication US11267965B2, “Polymeric materials for biomedical applications” (Aleo BME, Inc., priority 2015, dated 2022).

What was measured:
[1] = test system: MAP-2 protein expression in PC12 cells; assay: Western blot analysis of microtubule-associated protein-2 (MAP-2) in PC12 cells; assay type: cell-based, rat; settings: 14 days
PC12 cells = assay: Quantification of global DNA methylation; assay type: cell-based, rat; settings: second day of culture
Schwann cells [2] = assay: Schwann cell migration, microchannel-based migration assay (live cell imaging); settings: left reservoir 4 mg/L folate, right reservoir 50 mg/L folate; channel width 200 μm
Schwann cells [3] = assay: Schwann cell migration, transwell model; assay type: cell-based; settings: 4 hr migration, compared to 4, 100 and 200 mg/L folate
PC-12 cells = assay: PC12 cell neurite outgrowth assay; assay type: cell-based, rat
Schwann cells [4] = assay: Quantification of global DNA methylation; assay type: cell-based; settings: second day of culture

## Nc1nc2ncc(CNc3ccc(C(=O)N[C@@H](CCC(=O)O)C(=O)O)cc3)nc2c(=O)[nH]1 [folic acid]
[1]; 50 mg/L folate, in the presence of NGF (50 ng/mL)
  MAP-2 protein expression relative to control medium (1.3 mg/L folate): 2.56 folds
[1]; 50 and 100 mg/L folate, in the absence of NGF
  MAP-2 protein expression relative to control sample (1.3 mg/L folate): 2.22-2.30 folds
PC12 cells
  folate concentration with highest global DNA methylation: 50 mg/L
Schwann cells [2]
  Schwann cell migration direction in microchannels: migration of Schwann cell from low folate medium to high folate medium
Schwann cells [3]
  folate concentration of medium toward which the highest number of Schwann cells migrated: 50 mg/L
PC-12 cells; 50-100 mg/L folate with 50 ng/mL NGF, day 7, control medium 1.3 mg/L folate <100 μm
  neurite outgrowth (average neurite length): > 150 μm
PC-12 cells; day 3 of culture, neural differentiation medium with 5 ng/ml neural growth factor
  folic acid concentration with highest neurite outgrowth: 50 mg/L
PC-12 cells; folic acid supplemented medium
  PC-12 neurite outgrowth rate: promote PC-12 neurite outgrowth rate in a dose-dependent manner
PC-12 cells; within the concentrations investigated
  optimal folic acid supplement concentration for promoting PC-12 differentiation and neurite outgrowth: 50 to 100 mg/L
Schwann cells [4]
  folate concentration with highest global DNA methylation: 50 mg/L
